Like-named read-outs stand apart in the source and are kept apart here.
Biological target: CFTR-mediated chloride transport in human intestinal epithelial enteroid cells (Homo sapiens, UniProt P13569)
Assay: Membrane potential dye, Enteroid Assay A
Assay type: cell-based
Details: for EC50: read-out: Ent. A EC50
Procedure: Base medium (ADF+++) consisted of Advanced DMEM/Ham's F12, 2 mM Glutamax, 10 mM HEPES, […] penicillin/streptomycin.
Bath 1 Buffer consisted of 1 mM MgCl2, 160 mM NaCl, 4.5 mM KCl, 10 mM HEPES, 10 mM Glucose, 2 mM CaCl2.
Chloride Free Buffer consisted of 1 mM Magnesium Gluconate, 2 mM Calcium Gluconate, 4.5 mM Potassium Gluconate, 160 mM Sodium Gluconate, 10 mM HEPES, 10 mM Glucose.
Bath1 Dye Solution consisted of Bath 1 Buffer, 0.04% Pluronic F127, 20 μM Methyl Oxonol, 30 μM CaCCinh-A01, 30 μM Chicago Sky Blue.
Chloride Free Dye Solution consisted of Chloride Free Buffer, 0.04% Pluronic F127, 20 μM Methyl Oxonol, 30 μM CaCCinh-A01, 30 μM Chicago Sky Blue.
3. Enteroid Cell Harvesting and Seeding
Cells were recovered in cell recovery solution, collected by centrifugation at 650 rpm for 5 min at 4° C., resuspended in TryPLE and incubated for 5 min at 37° C. Cells were then collected by centrifugation at 650 rpm for 5 min at 4° C. and resuspended in IEMM containing 10 μM ROCK inhibitor (RI).
4. Membrane Potential Dye, Enteroid Assay A
Briefly, cells were washed 5 times in Bath 1 Buffer. Bath 1 Dye Solution was added, and the cells were incubated for 25 min at room temperature. Following dye incubation, cells were washed 3 times in Chloride Free Dye Solution. Chloride transport was initiated by addition of Chloride Free Dye Stimulation Solution and the fluorescence signal was read for 15 min. […] Chloride transport was then expressed as a percentage of the chloride transport following treatment with 3 μM N-[(6-amino-2-pyridyl)sulfonyl]-6-(3-fluoro-5-isobutoxy-phenyl)-2-[(4S)-2,2,4-trimethylpyrrolidin-1-yl]pyridine-3-carboxamide, 3 μM (R)-1-(2,2-difluorobenzo[d][1,3]dioxol-5-yl)-N-(1-(2,3-dihydroxypropyl)-6-fluoro-2-(1-hydroxy-2-methylpropan-2-yl)-1H-indol-5-yl)cyclopropanecarboxamide and 300 nM acute N-[2,4-bis(1,1-dimethylethyl)-5-hydroxyphenyl]-1,4-dihydro-4-oxoquinoline-3-carboxamide triple combination control (% Activity).

[1] = percentage of chloride transport of triple combination control (3 μM N-[(6-amino-2-pyridyl)sulfonyl]-6-(3-fluoro-5-isobutoxy-phenyl)-2-[(4S)-2,2,4-trimethylpyrrolidin-1-yl]pyridine-3-carboxamide based)

Sequence of CFTR-mediated chloride transport in human intestinal epithelial enteroid cells (P13569 with tags, fused parts or gaps DEL508-508): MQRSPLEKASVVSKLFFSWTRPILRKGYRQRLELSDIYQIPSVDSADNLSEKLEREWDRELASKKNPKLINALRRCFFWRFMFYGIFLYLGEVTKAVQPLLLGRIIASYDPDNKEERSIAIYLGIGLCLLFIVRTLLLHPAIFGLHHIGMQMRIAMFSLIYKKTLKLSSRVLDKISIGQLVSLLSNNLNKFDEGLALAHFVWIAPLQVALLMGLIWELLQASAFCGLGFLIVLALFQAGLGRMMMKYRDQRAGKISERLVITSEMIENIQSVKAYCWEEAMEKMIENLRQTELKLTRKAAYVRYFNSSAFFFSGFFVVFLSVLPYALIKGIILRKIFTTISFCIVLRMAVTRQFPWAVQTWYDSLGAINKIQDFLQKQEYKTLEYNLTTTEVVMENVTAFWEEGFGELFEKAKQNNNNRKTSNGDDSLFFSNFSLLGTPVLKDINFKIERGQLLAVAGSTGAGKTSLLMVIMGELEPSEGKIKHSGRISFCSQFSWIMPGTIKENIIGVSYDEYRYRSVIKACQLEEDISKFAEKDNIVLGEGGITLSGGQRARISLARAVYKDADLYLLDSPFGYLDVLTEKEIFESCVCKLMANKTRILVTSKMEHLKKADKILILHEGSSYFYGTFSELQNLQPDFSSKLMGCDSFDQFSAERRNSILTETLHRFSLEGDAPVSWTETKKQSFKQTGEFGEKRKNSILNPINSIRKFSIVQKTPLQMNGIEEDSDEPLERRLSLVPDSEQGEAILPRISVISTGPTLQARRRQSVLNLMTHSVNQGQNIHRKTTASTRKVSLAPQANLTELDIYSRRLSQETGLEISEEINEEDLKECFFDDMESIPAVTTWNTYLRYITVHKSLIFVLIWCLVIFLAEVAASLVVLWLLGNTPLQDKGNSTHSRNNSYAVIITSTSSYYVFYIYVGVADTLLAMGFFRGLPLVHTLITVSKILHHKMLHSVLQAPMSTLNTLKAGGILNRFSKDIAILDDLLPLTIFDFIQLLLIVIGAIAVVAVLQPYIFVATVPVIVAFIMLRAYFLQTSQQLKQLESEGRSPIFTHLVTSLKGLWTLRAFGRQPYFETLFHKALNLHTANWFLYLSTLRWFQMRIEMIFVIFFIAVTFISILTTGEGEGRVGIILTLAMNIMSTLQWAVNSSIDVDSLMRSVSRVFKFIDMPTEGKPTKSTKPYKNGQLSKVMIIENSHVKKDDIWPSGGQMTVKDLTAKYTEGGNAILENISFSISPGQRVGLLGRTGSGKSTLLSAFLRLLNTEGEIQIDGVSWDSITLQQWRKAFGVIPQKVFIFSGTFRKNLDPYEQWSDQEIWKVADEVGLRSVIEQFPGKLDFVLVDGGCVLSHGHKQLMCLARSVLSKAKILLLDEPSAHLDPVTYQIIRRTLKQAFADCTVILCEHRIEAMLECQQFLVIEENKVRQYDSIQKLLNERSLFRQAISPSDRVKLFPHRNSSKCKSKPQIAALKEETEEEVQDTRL

SMILES | Ent. A Max Activity (%) (Enteroid Assay A) | EC50 (Enteroid Assay A) [µM] | EC50 (enteroid cells incubated with test compound 18-24 hours, acute 10 μM forskolin and 300 nM N-[2,4-bis(1,1-dimethylethyl)-5-hydroxyphenyl]-1,4-dihydro-4-oxoquinoline-3-carboxamide) [µM] | Ent. A Max Activity (%) [1]
Cc1cccc(C)c1-c1cc2nc(n1)NS(=O)(=O)c1cccc(c1)C(=O)N1CCN(C3CCC3(C)C)C[C@H](C1)O2 (single isomer, unassigned) [Compound 9] | +++ (+++ is >600%) | < 1 |  | 
Cc1cccc(C)c1-c1cc2nc(n1)NS(=O)(=O)c1cccc(c1)C(=O)N1CCN(C3CCC3(C)C)C[C@H](C1)O2 (single isomer, unassigned) [Compound 10] | +++ (+++ is >600%) | < 1 |  | 
Cc1cccc(C)c1-c1cc2nc(n1)NS(=O)(=O)c1cccc(c1)C(=O)N1CCN(C3CCC(C)(C)C3)C[C@H](C1)O2 (single isomer, unassigned) [Compound 36] | +++ (+++ is >600%) | < 1 |  | 
Cc1cccc(C)c1-c1cc2nc(n1)NS(=O)(=O)c1cccc(c1)C(=O)N1CCN(C3CCC(C)(C)C3)C[C@H](C1)O2 (single isomer, unassigned) [Compound 37] | +++ (+++ is >600%) | < 1 |  | 
Cc1cccc(C)c1-c1cc2nc(n1)NS(=O)(=O)c1cccc(c1)C(=O)N1CCN([C@H]3CC[C@@H](F)CC3)C[C@H](C1)O2 (single isomer, unassigned) [Compound 38] | +++ (+++ is >600%) | < 1 |  | 
Cc1cccc(C)c1-c1cc2nc(n1)NS(=O)(=O)c1cccc(c1)C(=O)N1CCN([C@H]3CC[C@@H](F)CC3)C[C@H](C1)O2 (single isomer, unassigned) [Compound 39] | +++ (+++ is >600%) | 1 to 3 |  | 
Cc1cccc(C)c1-c1cc2nc(n1)NS(=O)(=O)c1cccc(c1)C(=O)N1CCN(CCC3(C(F)(F)F)CC3)CC(C1)O2 (single isomer, unassigned) [Compound 69, 12-(2,6-Dimethylphenyl)-18-{2-[1-(trifluoromethyl)cyclopropyl]ethyl}-15-oxa-8λ^6-thia-1,9,11,18,22-pentaazatetracyclo[14.4.1.13,7.110,14]tricosa-3(23),4,6,10(22),11,13-hexaene-2,8,8-trione] | +++ (+++ is >600%) | < 1 |  | 
Cc1cccc(C)c1-c1cc2nc(n1)NS(=O)(=O)c1cccc(c1)C(=O)N1CCN([C@@H](C)C(C)(C)C)C[C@H](C1)O2 (single isomer, unassigned) [Compound 72] | +++ (+++ is >600%) | < 1 |  | 
Cc1cccc(C)c1-c1cc2nc(n1)NS(=O)(=O)c1cccc(c1)C(=O)N1CCNCC(O2)C1CC(C)C (single isomer, unassigned) [Compound 91, 12-(2,6-Dimethylphenyl)-21-(2-methylpropyl)-15-oxa-8λ^6-thia-1,9,11,18,22-pentaazatetracyclo[14.4.1.13,7.110,14]tricosa-3(23),4,6,10(22),11,13-hexaene-2,8,8-trione] | +++ (+++ is >600%) | 1 to 3 |  | 
Cc1cccc(C)c1-c1cc2nc(n1)NS(=O)(=O)c1cccc(c1)C(=O)N1CCN(CCC(C)(C)C)CC(O2)C1CC(C)C (single isomer, unassigned) [Compound 92, 18-(3,3-Dimethylbutyl)-12-(2,6-dimethylphenyl)-21-(2-methylpropyl)-15-oxa-8λ^6-thia-1,9,11,18,22-pentaazatetracyclo[14.4.1.13,7.110,14]tricosa-3(23),4,6,10(22),11,13-hexaene-2,8,8-trione] | +++ (+++ is >600%) | < 1 |  | 
Cc1cccc(C)c1-c1cc2nc(n1)NS(=O)(=O)c1cccc(c1)C(=O)N1Cc3cccnc3[C@H](C1)O2 (single isomer, unassigned) [Compound 196, 12-(2,6-Dimethylphenyl)-15-oxa-8λ^6-thia-1,9,11,18,25-pentaazapentacyclo[14.7.1.13,7.110,14.017,22]hexacosa-3,5,7(26),10(25),11,13,17,19,21-nonaene-2,8,8-trione] |  |  |  | + (+ is <300%)
Cc1cccc(C)c1-c1cc2nc(n1)NS(=O)(=O)c1cccc(c1)C(=O)N1CC3CCCN(C)C3[C@@H](C1)O2 (single isomer, unassigned) [Compound 200, 12-(2,6-dimethylphenyl)-18-methyl-15-oxa-8λ^6-thia-1,9,11,18,25-pentaazapentacyclo[14.7.1.13,7.110,14.017,22]hexacosa-3,5,7(26),10(25),11,13-hexaene-2,8,8-trione] |  |  |  | + (+ is <300%)

Continued, in another order:

Ent. A Max Activity (%) (Enteroid Assay A) | EC50 (Enteroid Assay A) [µM] | EC50 (enteroid cells incubated with test compound 18-24 hours, acute 10 μM forskolin and 300 nM N-[2,4-bis(1,1-dimethylethyl)-5-hydroxyphenyl]-1,4-dihydro-4-oxoquinoline-3-carboxamide) [µM] | SMILES | Ent. A Max Activity (%) [1]
+++ (+++ is >600%) | < 1 |  | Cc1cccc(C)c1-c1cc2nc(n1)NS(=O)(=O)c1cccc(c1)C(=O)N1CCN([C@@H](C)C(C)(C)C)C[C@H](C1)O2 (single isomer, unassigned) [Compound 73] | 
++ (++ is 30-60%) | < 1 |  | Cc1cccc(C)c1-c1cc2nc(n1)NS(=O)(=O)c1cccc(c1)C(=O)N1CCN(Cc3ccccc3)C[C@H](O2)[C@@H]1CC(C)C (single isomer, unassigned) [Compound 87] | 
++ (++ is 30-60%) | < 1 |  | Cc1cccc(C)c1-c1cc2nc(n1)NS(=O)(=O)c1cccc(c1)C(=O)N1CCN(Cc3ccccc3)CC(O2)C1CC(C)C (single isomer, unassigned) [Compound 88, 18-Benzyl-12-(2,6-dimethylphenyl)-21-(2-methylpropyl)-15-oxa-8λ^6-thia-1,9,11,18,22-pentaazatetracyclo[14.4.1.13,7.110,14]tricosa-3(23),4,6,10(22),11,13-hexaene-2,8,8-trione] | 
+++ (+++ is >600%) | < 1 |  | Cc1cccc(C)c1-c1cc2nc(n1)NS(=O)(=O)c1cccc(c1)C(=O)N1CCN(Cc3ccccc3)CC(O2)C1CC(C)C (single isomer, unassigned) [Compound 89, 18-benzyl-12-(2,6-dimethylphenyl)-21-(2-methylpropyl)-15-oxa-8λ^6-thia-1,9,11,18,22-pentaazatetracyclo[14.4.1.13,7.110,14]tricosa-3(23),4,6,10(22),11,13-hexaene-2,8,8-trione] | 
+++ (+++ is >600%) | < 1 |  | Cc1cccc(C)c1-c1cc2nc(n1)NS(=O)(=O)c1cccc(c1)C(=O)N1CCN(Cc3ccccc3)CC(O2)C1CC(C)C (single isomer, unassigned) [Compound 90, 18-Benzyl-12-(2,6-dimethylphenyl)-21-(2-methylpropyl)-15-oxa-8λ^6-thia-1,9,11,18,22-pentaazatetracyclo[14.4.1.13,7.110,14]tricosa-3(23),4,6,10(22),11,13-hexaene-2,8,8-trione] | 
+++ (+++ is >600%) | < 1 |  | Cc1cccc(C)c1-c1cc2nc(n1)NS(=O)(=O)c1cccc(c1)C(=O)N1CCN(Cc3ccccc3)CC(O2)C1CC(C)C (single isomer, unassigned) [Compound 94, 18-Benzyl-12-(2,6-dimethylphenyl)-21-(2-methylpropyl)-15-oxa-8λ^6-thia-1,9,11,18,22-pentaazatetracyclo[14.4.1.13,7.110,14]tricosa-3(23),4,6,10(22),11,13-hexaene-2,8,8-trione] | 
+++ (+++ is >600%) | < 1 |  | Cc1cccc(C)c1-c1cc2nc(n1)NS(=O)(=O)c1cccc(c1)C(=O)N1CCN(C(=O)OCc3ccccc3)C[C@H](O2)[C@H]1C (single isomer, unassigned) [Compound 112] | 
+ (+ is <30%) | 3 to 30 |  | Cc1cccc(C)c1-c1cc2nc(n1)NS(=O)(=O)c1cccc(c1)C(=O)N1CCN(C(=O)OCc3ccccc3)C[C@@H](O2)[C@H]1C (single isomer, unassigned) [Compound 113] | 
 |  | < 1 | Cc1cccc(C)c1-c1cc2nc(n1)NS(=O)(=O)c1cccc(c1)C(=O)N1CC3CCCN(C)C3[C@H](C1)O2 (single isomer, unassigned) [Compound 199, 12-(2,6-dimethylphenyl)-18-methyl-15-oxa-8λ^6-thia-1,9,11,18,25-pentaazapentacyclo[14.7.1.13,7.110,14.017,22]hexacosa-3,5,7(26),10(25),11,13-hexaene-2,8,8-trione] | +++ (+++ is >60%)
++ (++ is 30-60%) | 3 to 30 |  | Cc1cccc(C)c1-c1cc2nc(n1)NS(=O)(=O)c1cccc(c1)C(=O)N1CC(O2)C2CCCN(C)C2C1 (single isomer, unassigned) [Compound 201, 12-(2,6-Dimethylphenyl)-21-methyl-15-oxa-8λ^6-thia-1,9,11,21,25-pentaazapentacyclo[14.7.1.13,7.110,14.017,22]hexacosa-3,5,7(26),10(25),11,13-hexaene-2,8,8-trione] | 
